The values below come from patent US20060148020A1, “Inhibitors of gst a3-3 and gst a1-1 for the treatment of cancer” (priority 2002, published 2006).

SMILES strings stand for the structures. Read-outs that look alike come from different tables or passages of the source.

The target of assay [1] is T1, GST A3-3 (Homo sapiens, UniProt Q16772).
T1 sequence (Q16772 1-222): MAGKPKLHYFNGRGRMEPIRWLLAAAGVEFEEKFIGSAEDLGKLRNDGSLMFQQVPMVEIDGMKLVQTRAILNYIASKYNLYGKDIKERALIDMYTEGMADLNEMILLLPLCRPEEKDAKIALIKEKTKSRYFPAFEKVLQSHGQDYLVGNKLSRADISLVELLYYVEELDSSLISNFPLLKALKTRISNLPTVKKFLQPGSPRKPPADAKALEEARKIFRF
Put plainly: biochemical.

The target of assay [2] is T2, GST A1-1 (Homo sapiens, UniProt P08263).
T2 sequence (P08263 1-222): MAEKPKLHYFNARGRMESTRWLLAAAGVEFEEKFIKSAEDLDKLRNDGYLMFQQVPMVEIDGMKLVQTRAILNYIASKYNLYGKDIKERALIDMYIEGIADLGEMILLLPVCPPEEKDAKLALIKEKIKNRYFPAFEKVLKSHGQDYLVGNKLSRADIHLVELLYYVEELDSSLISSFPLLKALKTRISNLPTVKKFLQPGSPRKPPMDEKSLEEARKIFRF
As to the kind of experiment: biochemical.

For assay [3], the target named is T3, GST A2-2 (Homo sapiens, UniProt P09210).
T3 sequence (P09210 1-222): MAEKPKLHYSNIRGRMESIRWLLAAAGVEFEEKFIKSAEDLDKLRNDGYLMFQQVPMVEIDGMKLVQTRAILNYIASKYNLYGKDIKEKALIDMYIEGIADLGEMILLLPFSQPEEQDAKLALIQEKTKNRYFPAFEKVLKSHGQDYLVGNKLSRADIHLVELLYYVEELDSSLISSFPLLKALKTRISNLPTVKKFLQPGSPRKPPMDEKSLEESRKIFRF
As to the kind of experiment: biochemical.

In assay [4] the target is T2, GST A1-1. To be noted: read-out: IC50 Values GST A1-1.
Assay [5] concerns the target T1, GST A3-3. To be noted: read-out: IC50 Values GST A3-3.
In assay [6] the target is T3, GST A2-2. To be noted: read-out: IC50 Values GST A2-2.

As usually defined, the IC50 is the concentration at which inhibition is half-maximal. Consider `C[CH2][Ge]([Cl])([CH2]C)[CH2]C` [Et3GeCl], for which the IC50 against GST A3-3 [1] came to 67000 nM; against GST A1-1 [2] it was 56000 nM; on GST A2-2 [3], 800 nM.

Regarding `CCC[CH2][Sn]([CH2]CCC)([CH2]CCC)[O]C(C)=O` [Bu3SnAc], the IC50 was 18 nM at GST A1-1 [4], 18 nM at GST A3-3 [5] and 410 nM at GST A2-2 [6].

In the case of `[Br][Pb]([c]1ccccc1)([c]1ccccc1)[c]1ccccc1` [Ph3PbBr], the IC50 on GST A3-3 [1] was 160 nM; against GST A1-1 [2], 8.6 nM.

As to `C[CH2][Pb]([Cl])([CH2]C)[CH2]C` [Et3PbCl], the IC50 on GST A3-3 [1] is 2300 nM; on GST A1-1 [2] it was 2000 nM.

On to `[Cl][Pb]([c]1ccccc1)([c]1ccccc1)[c]1ccccc1` [Ph3PbCl], for which the values for the IC50 at GST A3-3 [1], at GST A1-1 [2] and against GST A2-2 [3] were 13 nM, 4.6 nM and 84 nM, respectively.

With `CC(=O)[O][Sn]([c]1ccccc1)([c]1ccccc1)[c]1ccccc1` [Ph3SnAc], the IC50 at GST A1-1 [4] and on GST A3-3 [5] was 160 nM throughout.
